Assay results taken from patent publication US10207030B2, “Implantable devices for bone or joint defects” (University of Utah Research Foundation, priority 2013, dated 2019).

Tested on: S. aureus
Test: MIC of tobramycin (previously determined)
Assay type: cell-based
Details: Staphylococcus aureus

`NC[C@H]1O[C@H](O[C@H]2[C@H](O)[C@@H](O[C@H]3O[C@H](CO)[C@@H](O)[C@H](N)[C@H]3O)[C@H](N)C[C@@H]2N)[C@H](N)C[C@@H]1O` [tobramycin] was tested, and the MIC was 4 µg/mL.
